The structures appear in SMILES notation. A value given as a limit tells only on which side of the number the result lay.

One may read the melting point as the temperature of the solid-liquid transition. `Cn1nc(-c2nc(NCCNc3ccccc3)c(N)nc2-c2ccccc2)ccc1=O` [Example 123, 6-{5-amino-6-[(2-anilinoethyl)amino]-3-phenyl-2-pyrazinyl}-2-methyl-3(2H)-pyridazinone]: the melting point fell in the range of 181 to 183 °C. The value for `Cn1nc(-c2nc(NCc3ccco3)c(N)nc2-c2ccccc2)ccc1=O` [Example 124, 6-{5-amino-6-[(2-furylmethyl)amino]-3-phenyl-2-pyrazinyl}-2-methyl-3(2H)-pyridazinone] was 249 to 252 °C; that for `Cn1nc(-c2nc(NCCc3ccccc3)c(N)nc2-c2ccccc2)ccc1=O` [Example 125, 6-{5-amino-3-phenyl-6-[(2-phenylethyl)amino]-2-pyrazinyl}-2-methyl-3(2H)-pyridazinone] was 232 to 234 °C; that for `Cn1nc(-c2nc(NCCCc3ccccc3)c(N)nc2-c2ccccc2)ccc1=O` [Example 126, 6-{5-amino-3-phenyl-6-[(3-phenylpropyl)amino]-2-pyrazinyl}-2-methyl-3(2H)-pyridazinone] was 196 to 197.5 °C. To `Cn1nc(-c2nc(NCCc3ccccn3)c(N)nc2-c2ccccc2)ccc1=O` [Example 127, 6-(5-amino-3-phenyl-6-{[2-(2-pyridyl)ethyl]amino}-2-pyrazinyl)-2-methyl-3(2H)-pyridazinone] belongs 224 to 227 °C. The value for `Cn1nc(-c2nc(NC3CCN(Cc4ccccc4)C3)c(N)nc2-c2ccccc2)ccc1=O` (stereo not shown) [Example 128, 6-{5-amino-6-[(1-benzyl-3-pyrrolidinyl)amino]-3-phenyl-2-pyrazinyl}-2-methyl-3(2H)-pyridazinone] was 183 to 185 °C; that for `Cn1nc(-c2nc(NC3CCN(Cc4ccccc4)CC3)c(N)nc2-c2ccccc2)ccc1=O` [Example 129, 6-{5-amino-6-[(1-benzyl-4-piperidinyl)amino]-3-phenyl-2-pyrazinyl}-2-methyl-3(2H)-pyridazinone] was 191 to 194 °C. With `Cn1nc(-c2nc(N3CCN(c4ccccc4)CC3)c(N)nc2-c2ccccc2)ccc1=O` [Example 130, 6-[5-amino-3-phenyl-6-(4-phenyl-1-piperazinyl)-2-pyrazinyl]-2-methyl-3(2H)-pyridazinone], the melting point was 155 to 157 °C. As for `Cn1nc(-c2nc(N3CCN4CCCC4C3)c(N)nc2-c2ccccc2)ccc1=O` (stereo not shown) [Example 131, 6-[5-amino-6-(hexahydropyrrolo[1,2-a]pyrazin-2(1H)-yl)-3-phenyl-2-pyrazinyl]-2-methyl-3(2H)-pyridazinone], the melting point was 177 to 179 °C. The value for `CC(C)n1nc(-c2nc(NCCN(C)C)c(N)nc2-c2ccccc2)ccc1=O` [Example 132, 6-(5-amino-6-{[2-(dimethylamino)ethyl]amino}-3-phenyl-2-pyrazinyl)-2-isopropyl-3(2H)-pyridazinone] was 188 to 189 °C. The value for `CC(=O)NCCNc1nc(-c2ccc(=O)n(C(C)C)n2)c(-c2ccccc2)nc1N` [Example 133, N-(2-{[3-amino-6-(1-isopropyl-6-oxo-1,6-dihydro-3-pyridazinyl)-5-phenyl-2-pyrazinyl]amino}ethyl)acetamide] was 147 to 149 °C. The value for `CC(C)n1nc(-c2nc(NCCc3ccccc3)c(N)nc2-c2ccccc2)ccc1=O` [Example 135, 6-{5-amino-3-phenyl-6-[(2-phenylethyl)amino]-2-pyrazinyl}-2-isopropyl-3(2H)-pyridazinone] was 204.5 to 207 °C. As for `CC(C)n1nc(-c2nc(NCCCc3ccccc3)c(N)nc2-c2ccccc2)ccc1=O` [Example 136, 6-{5-amino-3-phenyl-6-[(3-phenylpropyl)amino]-2-pyrazinyl}-2-isopropyl-3(2H)-pyridazinone], the melting point lay in the range of 185.5 to 187 °C.

Compound `CC(C)n1nc(-c2nc(NC3CCCCC3)c(N)nc2-c2ccccc2)ccc1=O` [Example 137, 6-[5-amino-6-(cyclohexylamino)-3-phenyl-2-pyrazinyl]-2-isopropyl-3(2H)-pyridazinone] displayed a melting point of 227 to 228.5 °C. As to `CC(C)n1nc(-c2nc(NC3CCN(Cc4ccccc4)C3)c(N)nc2-c2ccccc2)ccc1=O` (stereo not shown) [Example 138, 6-{5-amino-6-[(1-benzyl-3-pyrrolidinyl)amino]-3-phenyl-2-pyrazinyl)-2-isopropyl-3(2H)-pyridazinone], the melting point fell in the range of 86 to 91 °C. The value for `CC(C)n1nc(-c2nc(Nc3ccccc3)c(N)nc2-c2ccccc2)ccc1=O` [Example 139, 6-(5-amino-6-anilino-3-phenyl-2-pyrazinyl)-2-isopropyl-3(2H)-pyridazinone] was greater than 250 °C. The value for `CC(C)n1nc(-c2nc(N3CCOCC3)c(N)nc2-c2ccccc2)ccc1=O` [Example 140, 6-[5-amino-6-(4-morpholinyl)-3-phenyl-2-pyrazinyl]-2-isopropyl-3(2H)-pyridazinone] was 212 to 214.5 °C; that for `CC(C)n1nc(-c2nc(N3CCCC3)c(N)nc2-c2ccccc2)ccc1=O` [Example 141, 6-[5-amino-3-phenyl-6-(1-pyrrolidinyl)-2-pyrazinyl]-2-isopropyl-3(2H)-pyridazinone] was 192 to 194.5 °C; that for `CC(C)n1nc(-c2nc(N3CCN(c4ccccn4)CC3)c(N)nc2-c2ccccc2)ccc1=O` [Example 142, 6-{5-amino-3-phenyl-6-[4-(2-pyridyl)-1-piperazinyl]-2-pyrazinyl}-2-isopropyl-3(2H)-pyridazinone] was 163 to 165 °C.

`Cn1nc(-c2nc(N(CCO)Cc3ccccc3)c(N)nc2-c2ccccc2)ccc1=O` [Example 143, 6-{5-amino-6-[benzyl(2-hydroxyethyl)amino]-3-phenyl-2-pyrazinyl}-2-methyl-3(2H)-pyridazinone] came in with a melting point of 210 to 212 °C. The value for `Cn1nc(-c2nc(NCc3ccccc3)c(N)nc2-c2ccccc2)ccc1=O` [Example 144, 6-[5-amino-6-(benzylamino)-3-phenyl-2-pyrazinyl]-2-methyl-3(2H)-pyridazinone] was greater than 250 °C.

`CN(C)c1nc(-c2ccc(=O)n(C)n2)c(-c2ccccc2)nc1N` [Example 144, 6-[5-amino-6-(dimethylamino)-3-phenyl-2-pyrazinyl]-2-methyl-3(2H)-pyridazinone] had a melting point of 150 to 152 °C.

Take `COc1ccc(CNc2nc(-c3ccc(=O)n(C)n3)c(-c3ccccc3)nc2N)cc1` [Example 145, 6-[5-amino-6-[(4-methoxybenzyl)amino]-3-phenyl-2-pyrazinyl}-2-methyl-3(2H)-pyridazinone]: the melting point was greater than 250 °C. To `Cn1nc(-c2nc(NCc3ccccn3)c(N)nc2-c2ccccc2)ccc1=O` [Example 146, 6-{5-amino-3-phenyl-6-[(2-pyridylmethyl)amino]-2-pyrazinyl}-2-methyl-3(2H)-pyridazinone] belongs greater than 250 °C; to `CC(C)n1nc(-c2nc(-n3cccc3)c(N)nc2-c2ccccc2)ccc1=O` [Example 147, 6-[5-amino-3-phenyl-6-(1H-pyrrol-1-yl)-2-pyrazinyl]-2-isopropyl-3(2H)-pyridazinone], 132 to 136 °C. To `Cn1nc(-c2nc(-n3cccc3)c(N)nc2-c2ccccc2)ccc1=O` [Example 148, 6-[5-amino-3-phenyl-6-(1H-pyrrol-1-yl)-2-pyrazinyl]-2-methyl-3(2H)-pyridazinone] belongs 202 to 205 °C. `CC(C)n1nc(-c2nc(-n3cccn3)c(N)nc2-c2ccccc2)ccc1=O` [Example 149, 6-[5-amino-3-phenyl-6-(1H-pyrazol-1-yl)-2-pyrazinyl]-2-isopropyl-3(2H)-pyridazinone] showed a melting point of 210 to 212 °C. To `CC(C)n1nc(-c2nc(-n3ccnc3)c(N)nc2-c2ccccc2)ccc1=O` [Example 150, 6-[5-amino-6-(1H-imidazol-1-yl)-3-phenyl-2-pyrazinyl]-2-isopropyl-3(2H)-pyridazinone] belongs greater than 250 °C; to `CC(C)n1nc(-c2nc(-n3cncn3)c(N)nc2-c2ccccc2)ccc1=O` [Example 151, 6-[5-amino-3-phenyl-6-(1H-1,2,4-triazol-1-yl)-2-pyrazinyl]-2-isopropyl-3(2H)-pyridazinone], 240 to 241.5 °C. To `CC(C)n1nc(-c2nc(-n3cnc4ccccc43)c(N)nc2-c2ccccc2)ccc1=O` [Example 152, 6-[5-amino-6-(1H-benzimidazol-1-yl)-3-phenyl-2-pyrazinyl]-2-isopropyl-3(2H)-pyridazinone] belongs greater than 250 °C. The value for `Cn1nc(-c2nc(-n3ccnc3)c(N)nc2-c2ccccc2)ccc1=O` [Example 154, 6-[5-amino-6-(1H-imidazol-1-yl)-3-phenyl-2-pyrazinyl]-2-methyl-3(2H)-pyridazinone] was greater than 250 °C; that for `Cn1nc(-c2nc(-n3cncn3)c(N)nc2-c2ccccc2)ccc1=O` [Example 155, 6-[5-amino-3-phenyl-6-(1H-1,2,4-triazol-1-yl)-2-pyrazinyl]-2-methyl-3(2H)-pyridazinone] was greater than 250 °C; that for `Cn1nc(-c2nc(-n3cnc4ccccc43)c(N)nc2-c2ccccc2)ccc1=O` [Example 156, 6-[5-amino-6-(1H-benzimidazol-1-yl)-3-phenyl-2-pyrazinyl]-2-methyl-3(2H)-pyridazinone] was greater than 250 °C. On to `COc1nc(-c2ccc(=O)n(C(C)C)n2)c(-c2ccccc2)nc1N` [Example 157, 6-(5-amino-6-methoxy-3-phenyl-2-pyrazinyl)-2-isopropyl-3(2H)-pyridazinone], for which the melting point lay within 211 to 214 °C. The value for `CC(C)n1nc(-c2nc(Oc3ccc(F)cc3)c(N)nc2-c2ccccc2)ccc1=O` [Example 158, 6-[5-amino-6-(4-fluorophenoxy)-3-phenyl-2-pyrazinyl]-2-isopropyl-3(2H)-pyridazinone] was 173 to 175 °C. The value for `CC(C)n1nc(-c2nc(Sc3ccc(F)cc3)c(N)nc2-c2ccccc2)ccc1=O` [Example 159, 6-{5-amino-6-[(4-fluorophenyl)thio]-3-phenyl-2-pyrazinyl}-2-isopropyl-3(2H)-pyridazinone] was 148 to 150 °C; that for `CC(C)Oc1nc(-c2ccc(=O)n(C(C)C)n2)c(-c2ccccc2)nc1N` [Example 160, 6-(5-amino-6-isopropoxy-3-phenyl-2-pyrazinyl)-2-isopropyl-3(2H)-pyridazinone] was 198 to 200 °C.

The record behind these values is patent publication US7265120B2, “Pyrazine derivatives and pharmaceutical use thereof” (Astellas Pharma Inc., priority 2004, dated 2007).
